“And” between values parts separate entries of the source, which are not always exact repeats. Equal values may be shown once.
Assays:
Phakopsora pachyrhizi = Phakopsora pachyrhizi / soybean / leaf disc preventative (Asian soybean rust); assay type: in vivo; conditions: foliar, 288 h, 200 ppm in the applied formulation, soybean leaf disks, inoculated one day after application, assessed 12 to 14 days after application, vs untreated, read-out: disease control
In short: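 Read-out is percent disease control relative to untreated check discs, assessed once untreated discs show adequate disease, 12 to 14 days after application. Compounds, tested at 200 ppm in the applied formulation, are sprayed onto soybean leaf discs one day before inoculation with a spore suspension.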

[1] = system: Glomerella Lagenarium (Colletotrichum Lagenarium); test: Glomerella lagenarium (Colletotrichum lagenarium) liquid culture / cucumber / preventative (anthracnose); assay type: cell-based; conditions: Colletotrichum orbiculare; 20 ppm in the applied formulation; liquid culture in PDB, 24° C., inhibition of growth measured photometrically 3 to 4 days after application, vs untreated; read-out: disease control
In short: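 Conidia from cryogenic storage were mixed into potato dextrose broth. This was added to compound diluted from DMSO into 0.025% Tween20, tested at 20 ppm. Plates were incubated in the dark at 24 °C and 96% relative humidity, and growth was read photometrically after 2–7 days as % activity versus untreated check.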

[2] = system: Puccinia recondita f. Sp. Tritici; test: Puccinia recondita f. sp. tritici / wheat / leaf disc curative (brown rust); assay type: in vivo; conditions: foliar, 144 h, 200 ppm in the applied formulation, wheat leaf segments cv. Kanzler, applied 1 day after inoculation, assessed 6 to 8 days after application, vs untreated, read-out: disease control
In short: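 Read-out is percent disease control relative to untreated segments, assessed 6 to 8 days after treatment once check disease is adequate. Kanzler wheat leaf segments on agar receive fungal spores, then test compound (DMSO stock diluted in 0.025% Tween20 or water) 1 day later, under 19° C and 75% relative humidity.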

[3] = system: Puccinia recondita f. Sp. Tritici; test: Puccinia recondita f. sp. tritici / wheat / leaf disc preventative (brown rust); assay type: in vivo; conditions: foliar, 168 h, 200 ppm in the applied formulation, wheat leaf segments cv. Kanzler, preventative, inoculated 1 day after application, assessed 7 to 9 days after application, vs untreated, read-out: disease control
In short: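 Wheat cv. Kanzler leaf segments on agar were sprayed with formulated compound in water, then inoculated with spores 1 day later. Incubated at 19° C, 75% rh, 12 h light/12 h dark; percent disease control versus untreated scored 7 to 9 days after application.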

melting point | SMILES | pest or weed control at 200 ppm (Phakopsora pachyrhizi) [%] | inhibition of growth at 20 ppm [1] [%] | pest or weed control at 200 ppm [2] [%] | pest or weed control at 200 ppm [3] [%]
160.2 to 162.4 °C | FC(F)(F)c1nc(-c2ccc(Cn3cc(-c4ccccn4)nn3)cc2)no1 [Compound 1.22, 3-[4-[[4-(2-pyridyl)triazol-1-yl]methyl]phenyl]-5-(trifluoromethyl)-1,2,4-oxadiazole] | ≥ 80 | ≥ 80 | ≥ 80 | ≥ 80
159.8 to 163.1 °C | FC(F)(F)c1nc(-c2ccc(Cn3cc(-c4cccnc4)nn3)cc2)no1 [Compound 1.23, 3-[4-[[4-(3-pyridyl)triazol-1-yl]methyl]phenyl]-5-(trifluoromethyl)-1,2,4-oxadiazole] | ≥ 80 | ≥ 80 | ≥ 80 | ≥ 80
117.9 to 118.8 °C and 117 to 119 °C | FC(F)(F)c1nc(-c2ccc(Cn3cc(C4CCCC4)nn3)cc2)no1 [Compound 1.24, 3-[4-[(4-cyclopentyltriazol-1-yl)methyl]phenyl]-5-(trifluoromethyl)-1,2,4-oxadiazole] | ≥ 80 | ≥ 80 |  | ≥ 80
113.9 to 115.7 °C | CC(C)Cc1cn(Cc2ccc(-c3noc(C(F)(F)F)n3)cc2)nn1 [Compound 1.26, 3-[4-[(4-isobutyltriazol-1-yl)methyl]phenyl]-5-(trifluoromethyl)-1,2,4-oxadiazole] | ≥ 80 | ≥ 80 | ≥ 80 | ≥ 80
90.4 to 92.3 °C | CC(C)(C)c1cn(Cc2ccc(-c3noc(C(F)(F)F)n3)cc2)nn1 [Compound 1.27, 3-[4-[(4-tert-butyltriazol-1-yl)methyl]phenyl]-5-(trifluoromethyl)-1,2,4-oxadiazole] | ≥ 80 | ≥ 80 | ≥ 80 | ≥ 80
103.2 to 104.9 °C | FC(F)(F)c1nc(-c2ccc(Cn3cc(COc4ccccc4)nn3)cc2)no1 [Compound 1.28, 3-[4-[[4-(phenoxymethyl)triazol-1-yl]methyl]phenyl]-5-(trifluoromethyl)-1,2,4-oxadiazole] | ≥ 80 | ≥ 80 |  | ≥ 80
157.6 to 161.9 °C | CC(C)(NC(=O)c1ccccc1)c1cn(Cc2ccc(-c3noc(C(F)(F)F)n3)cc2)nn1 [Compound 1.30, N-[1-methyl-1-[1-[[4-[5-(trifluoromethyl)-1,2,4-oxadiazol-3-yl]phenyl]methyl]triazol-4-yl]ethyl]benzamide] | ≥ 80 | ≥ 80 | ≥ 80 | ≥ 80
107.6 to 109.5 °C | FC(F)(F)c1nc(-c2ccc(Cn3ccnn3)cc2)no1 [Compound 1.32, 3-[4-(triazol-1-ylmethyl)phenyl]-5-(trifluoromethyl)-1,2,4-oxadiazole] | ≥ 80 | ≥ 80 | ≥ 80 | ≥ 80
105.4 to 107.9 °C | FC(F)(F)c1nc(-c2ccc(Cn3nccn3)cc2)no1 [Compound 1.33, 3-[4-(triazol-2-ylmethyl)phenyl]-5-(trifluoromethyl)-1,2,4-oxadiazole] | ≥ 80 | ≥ 80 | ≥ 80 | ≥ 80
134 to 136 °C | CCOC(=O)c1cn(Cc2ccc(-c3noc(C(F)(F)F)n3)cc2)nn1 [Compound 1.276, ethyl 1-[[4-[5-(trifluoromethyl)-1,2,4-oxadiazol-3-yl]phenyl]methyl]triazole-4-carboxylate] | ≥ 80 | ≥ 80 |  | ≥ 80
146 to 148 °C | CC(C)OC(=O)c1cn(Cc2ccc(-c3noc(C(F)(F)F)n3)cc2)nn1 [Compound 1.278, isopropyl 1-[[4-[5-(trifluoromethyl)-1,2,4-oxadiazol-3-yl]phenyl]methyl]triazole-4-carboxylate] | ≥ 80 | ≥ 80 |  | ≥ 80
80 to 120 °C | CCON=Cc1cnn(Cc2ccc(-c3noc(C(F)(F)F)n3)cc2)c1 [Compound 1.286, N-ethoxy-1-[1-[[4-[5-(trifluoromethyl)-1,2,4-oxadiazol-3-yl]phenyl]methyl]pyrazol-4-yl]methanimine] | ≥ 80 | ≥ 80 |  | ≥ 80
60 to 95 °C | CCCON=Cc1cnn(Cc2ccc(-c3noc(C(F)(F)F)n3)cc2)c1 [Compound 1.287, N-propoxy-1-[1-[[4-[5-(trifluoromethyl)-1,2,4-oxadiazol-3-yl]phenyl]methyl]pyrazol-4-yl]methanimine] |  | ≥ 80 | ≥ 80 | ≥ 80
119.2 to 119.8 °C | CS(=O)(=O)c1ncnn1Cc1ccc(-c2noc(C(F)(F)F)n2)cc1 [Compound 1.294, 3-[4-[(5-methylsulfonyl-1,2,4-triazol-1-yl)methyl]phenyl]-5-(trifluoromethyl)-1,2,4-oxadiazole] |  | ≥ 80 | ≥ 80 | ≥ 80
71.2 to 73.7 °C | C[S+]([O-])c1ncnn1Cc1ccc(-c2noc(C(F)(F)F)n2)cc1 (centres unmarked) [Compound 1.295, 3-[4-[(5-methylsulfinyl-1,2,4-triazol-1-yl)methyl]phenyl]-5-(trifluoromethyl)-1,2,4-oxadiazole] |  | ≥ 80 | ≥ 80 | ≥ 80
145.4 to 146.4 °C | CS(=O)(=O)c1ncn(Cc2ccc(-c3noc(C(F)(F)F)n3)cc2)n1 [Compound 1.296, 3-[4-[(3-methylsulfonyl-1,2,4-triazol-1-yl)methyl]phenyl]-5-(trifluoromethyl)-1,2,4-oxadiazole] |  | ≥ 80 | ≥ 80 | ≥ 80
114.4 to 115.2 °C | C[S+]([O-])c1ncn(Cc2ccc(-c3noc(C(F)(F)F)n3)cc2)n1 (centres unmarked) [Compound 1.297, 3-[4-[(3-methylsulfinyl-1,2,4-triazol-1-yl)methyl]phenyl]-5-(trifluoromethyl)-1,2,4-oxadiazole] |  | ≥ 80 | ≥ 80 | ≥ 80
72 to 73.2 °C | CSc1ncnn1Cc1ccc(-c2noc(C(F)(F)F)n2)cc1 [Compound 1.298, 3-[4-[(5-methylsulfanyl-1,2,4-triazol-1-yl)methyl]phenyl]-5-(trifluoromethyl)-1,2,4-oxadiazole] |  | ≥ 80 | ≥ 80 | ≥ 80
88 to 90.4 °C | CSc1ncn(Cc2ccc(-c3noc(C(F)(F)F)n3)cc2)n1 [Compound 1.299, 3-[4-[(3-methylsulfanyl-1,2,4-triazol-1-yl)methyl]phenyl]-5-(trifluoromethyl)-1,2,4-oxadiazole] |  | ≥ 80 | ≥ 80 | ≥ 80
54.5 to 56.6 °C | FC(F)(F)c1nc(-c2ccc(CN3CCSCC3)cc2)no1 [Compound 1.302, 3-[4-(thiomorpholino-methyl)phenyl]-5-(trifluoromethyl)-1,2,4-oxadiazole] |  | ≥ 80 | ≥ 80 | ≥ 80
108 to 110 °C | CCOC(=O)c1cnn(CCc2ccc(-c3noc(C(F)(F)F)n3)cc2)c1 [Compound 1.310, ethyl 1-[2-[4-[5-(trifluoromethyl)-1,2,4-oxadiazol-3-yl]phenyl]ethyl]pyrazole-4-carboxylate] | ≥ 80 |  |  | ≥ 80

SMILES | melting point | pest or weed control at 200 ppm (Phakopsora pachyrhizi) [%] | inhibition of growth at 20 ppm [1] [%] | pest or weed control at 200 ppm [2] [%] | pest or weed control at 200 ppm [3] [%]
C[Si](C)(C)c1cn(Cc2ccc(-c3noc(C(F)(F)F)n3)cc2)nn1 [Compound 1.25, trimethyl-[1-[[4-[5-(trifluoromethyl)-1,2,4-oxadiazol-3-yl]phenyl]methyl]triazol-4-yl]silane] | 87.8 to 89.5 °C | ≥ 80 | ≥ 80 | ≥ 80 | ≥ 80

Source: US10798941B2, “Microbiocidal oxadiazole derivatives” (SYNGENTA PARTICIPATIONS AG, priority 2016, dated 2020)
